Measured values: patent publication US20100104675A1, “Method Of Treating Demyelinating Central Nervous System Diseases” (priority 2008, published 2010)

Tests used:
[1] = tested on: rheumatoid arthritis patients; details: cited from earlier work
[2] = tested on: PLP139-151-immunized SJL mice (EAE); assay: Actively induced EAE in PLP139-151-immunized SJL/J mice, oral treatment; assay type: in vivo
[3] = Example 2, Table 2, TwHF 12.5 mg/kg/d from day 0, triptolide 10 μg/kg/d from day 8, oral
[4] = Example 2, TwHF 12.5 mg/kg/d, triptolide 10 μg/kg/d, vs control

O=C(O)c1cc(/N=N/c2ccc(S(=O)(=O)Nc3ccccn3)cc2)ccc1O [sulfasalazine]
ACR20 ([1]; 24 weeks of the Phase 2 trial): 21.3% | patients with an ACR20 response ([1]; at 2 weeks): 9.8%

CC(C)[C@]12O[C@H]1[C@@H]1O[C@]13[C@]1(O[C@H]1C[C@H]1C4=C(CC[C@@]13C)C(=O)OC4)[C@@H]2O [Triptolide, triptolide]
Duration (mean duration of disease) [2, 3]: 7.6 ± 1 days | Group score (EAE clinical score 0-6) [2, 3]: 0.88 ± 0.09 | Onset [2, 3]: 13.9 ± 0.95 | reduction in the duration of the disease [2, 4]: 26.2% | reduction in the group score [2, 4]: 52.5%
